Values of other authors in paper PMC4284722, “Intrinsic Tryptophan Fluorescence in the Detection and Analysis of Proteins: A Focus on Förster Resonance Energy Transfer Techniques” (International Journal of Molecular Sciences, 2014).

Test system: serum albumin
Parameters: method as in PMID 2313585, PMID 19683079
Settings: nonspecific ligand of serum albumin

O=S(=O)(O)c1cccc2cccc(Nc3ccccc3)c12 [ANS, 1-anilinonaphthalene-8-sulfonate]
affinity: moderate affinity
